Results published in patent US12377104B1, “Methods for treating a fatty liver disease” (Madrigal Pharmaceuticals, Inc., priority 2024, dated 2025).

System: adults with biopsy-confirmed NASH
Test: MAESTRO-NASH: liver enzymes, imaging and biomarkers (MRI-PDFF, CAP, VCTE, MRE, liver and spleen volume, ELF)
Type: in vivo, human
[1] = 100 mg, wk 48, baseline ALT ≥30 U per liter
[2] = 100 mg, F1B, responder analysis
[3] = 100 mg, week 52, baseline ELF score ≥9.8
[4] = 100 mg, week 52, baseline PIIINP ≥9 ng/mL
[5] = 100 mg, week 52, baseline TIMP-I ≥240 ng/ml
[6] = 100 mg, week 52, baseline hyaluronic acid ≥50 ng/ml

## CC(C)c1cc(Oc2c(Cl)cc(-n3nc(C#N)c(=O)[nH]c3=O)cc2Cl)n[nH]c1=O [Resmetirom, 2-(3,5-dichloro-4-((5-isopropyl-6-oxo-1,6-dihydropyridazin-3-yl)oxy)phenyl)-3,5-dioxo-2,3,4,5-tetrahydro-1,2,4-triazine-6-carbonitrile]
80 mg, week 52, baseline hyaluronic acid ≥50 ng/ml
  Hyaluronic acid, LS mean CFB difference from PBO: 0.58 µg/L
100 mg, wk 48
  Alanine aminotransferase level, difference from placebo: −26.3 percentage points
  Aspartate aminotransferase level, difference from placebo: −25.4 percentage points
  γ-Glutamyltransferase level, difference from placebo: −35.2 percentage points
[1]
  Alanine aminotransferase level, least-squares mean percent change from baseline: −33.2 ± 3.9%
  Aspartate aminotransferase level, least-squares mean percent change from baseline: −28.3 ± 3.9%
  γ-Glutamyltransferase level, least-squares mean percent change from baseline: −31.9 ± 6.3%
100 mg, wk 52
  MRI-PDFF, difference from placebo: −37.9 percentage points
  MRI-PDFF, least-squares mean percent change from baseline: −46.6 ± 2.8%
[2]
  MRE ≥19% increase from BL, % of patients: (20.0) %
  MRE ≥19% increase from BL, no. of patients: 1
  MRE ≥19% reduction from BL, no. of patients: 0
  VCTE/LSM improving >25%, % of patients: (70.0) %
  VCTE/LSM improving >25%, no. of patients: 7
  VCTE/LSM improving ≥30%, % of patients: (60.0) %
  VCTE/LSM improving ≥30%, no. of patients: 6
  VCTE/LSM worsening ≥25%, no. of patients: 0
  VCTE/LSM worsening ≥30%, no. of patients: 0
100 mg, F1B, week 52
  FibroScan VCTE/LSM, LS mean CFB: −3.7 kPa
  FibroScan VCTE/LSM, LS mean CFB difference from PBO: −3.1 kPa
  MRE, LS mean % CFB: 2.4%
  MRE, LS mean % CFB difference from PBO: −5.1%
100 mg, F2, responder analysis
  MRE ≥19% increase from BL, no. of patients: 0
  MRE ≥19% reduction from BL, % of patients: (22.7) %
  MRE ≥19% reduction from BL, no. of patients: 5
  VCTE/LSM improving ≥25%, % of patients: (50.0) %
  VCTE/LSM improving ≥25%, no. of patients: 38
  VCTE/LSM improving ≥30%, % of patients: (40.8) %
  VCTE/LSM improving ≥30%, no. of patients: 31
  VCTE/LSM worsening ≥25%, % of patients: (10.5) %
  VCTE/LSM worsening ≥25%, no. of patients: 8
  VCTE/LSM worsening ≥30%, % of patients: (6.6) %
  VCTE/LSM worsening ≥30%, no. of patients: 5
100 mg, F2, week 52
  FibroScan VCTE/LSM, LS mean CFB: −2.4 kPa
  FibroScan VCTE/LSM, LS mean CFB difference from PBO: −1.2 kPa
  MRE, LS mean % CFB: 1.1%
  MRE, LS mean % CFB difference from PBO: 0.99%
100 mg, F3, responder analysis
  MRE ≥19% increase from BL, % of patients: (8.1) %
  MRE ≥19% increase from BL, no. of patients: 7
  MRE ≥19% reduction from BL, % of patients: (31.4) %
  MRE ≥19% reduction from BL, no. of patients: 27
  VCTE/LSM improving ≥25%, % of patients: (47.9) %
  VCTE/LSM improving ≥25%, no. of patients: 80
  VCTE/LSM improving ≥30%, % of patients: (38.9) %
  VCTE/LSM improving ≥30%, no. of patients: 65
  VCTE/LSM worsening ≥25%, % of patients: (10.8) %
  VCTE/LSM worsening ≥25%, no. of patients: 18
  VCTE/LSM worsening ≥30%, % of patients: (10.2) %
  VCTE/LSM worsening ≥30%, no. of patients: 17
100 mg, F3, week 52
  FibroScan VCTE/LSM, LS mean CFB: −3.2 kPa
  FibroScan VCTE/LSM, LS mean CFB difference from PBO: −2.1 kPa
  MRE, LS mean % CFB: 5.2%
  MRE, LS mean % CFB difference from PBO: −4.8%
100 mg, week 16
  Liver volume, LS mean % CFB: -21.4%
  Liver volume, LS mean % CFB difference from PBO: −21.1%
  MRI-PDFF % fat fraction, LS mean % CFB: 42.1%
  MRI-PDFF % fat fraction, LS mean % CFB difference from PBO: −35.7%
  Spleen volume, LS mean % CFB: 3.6%
  Spleen volume, LS mean % CFB difference from PBO: −5.0%
100 mg, week 48
  ALT, LS mean % CFB: −33.2%
  ALT, LS mean % CFB difference from PBO: −26.3%
  ALT, LS mean CFB: 24.8 U/L
  AST, LS mean % CFB: 28.3%
  AST, LS mean % CFB difference from PBO: −25.4%
  AST, LS mean CFB: 15.8 U/L
  GGT, LS mean % CFB: -31.9%
  GGT, LS mean % CFB difference from PBO: −35.2%
  GGT, LS mean CFB: -32.7 U/L
100 mg, week 52
  Adiponectin, LS mean CFB: 1.1 µg/mL
  Adiponectin, LS mean CFB difference from PBO: 1.3 µg/mL
  CK-18, LS mean CFB: -310 U/L
  CK-18, LS mean CFB difference from PBO: −165.7 U/L
  FibroScan CAP, LS mean CFB: −41.3 dB/m
  FibroScan CAP, LS mean CFB difference from PBO: −26.9 dB/m
  Liver volume, LS mean % CFB: -25.8%
  Liver volume, LS mean % CFB difference from PBO: 24.8%
  MRI-PDFF % fat fraction, LS mean % CFB: 46.6%
  MRI-PDFF % fat fraction, LS mean % CFB difference from PBO: −37.9%
  Spleen volume, LS mean % CFB: −6.1%
  Spleen volume, LS mean % CFB difference from PBO: −9.3%
[3]
  Enhanced liver fibrosis score, LS mean CFB: −0.35
  Enhanced liver fibrosis score, LS mean CFB difference from PBO: −0.24
[4]
  PIIINP, LS mean % CFB: -10.3%
  PIIINP, LS mean % CFB difference from PBO: −9.3%
  PIIINP, LS mean CFB: -2.1 ng/mL
  PIIINP, LS mean CFB difference from PBO: -1.4 ng/mL
[5]
  TIMP-I, LS mean % CFB: −10.1%
  TIMP-I, LS mean % CFB difference from PBO: −6.5%
  TIMP-I, LS mean CFB: -35.7 ng/mL
  TIMP-I, LS mean CFB difference from PBO: -22.3 ng/mL
[6]
  Hyaluronic acid, LS mean % CFB: 11.8%
  Hyaluronic acid, LS mean % CFB difference from PBO: −13.0%
  Hyaluronic acid, LS mean CFB: -2.9 µg/L
  Hyaluronic acid, LS mean CFB difference from PBO: -3.5 µg/L
